Values joined by “and” are separate entries in the source; they are usually repeats but may differ in a detail not shown here. Equal values may be shown once. Bridge positions count the residues as written; N and C are the ends. Square brackets hold non-standard residues; d marks the D form. Peptide text beside a SMILES is read from it.
What was measured:
[1] = Plasma stability, human plasma; settings: for remaining at 1 h, 10 µM / remaining at 3 h, 10 µM / remaining at 6 h, 10 µM / half-life: human; for remaining at 1 h, 10 µM / remaining at 3 h, 10 µM / remaining at 6 h, 10 µM: human Li-heparin plasma; for half-life: plasma
Method: (§1) Plasma stability measurements were performed by spiking 5 μl of a 1 mM compound stock solution in DMSO into 495 μl of human or mouse Li-heparin plasma (Innovative Research, Cat. No, IPLALIH5OML (human) and IMS-BC-N (Balb C mouse). The spiked plasma was distributed in 50 μl aliquots into capped PCR tubes for incubation at 37° C. At each time point (0, 2, 6, 24 hours*) 3*aliquots were withdrawn from the incubator. Enzymatic reactions were quenched directly after withdrawal by adding 100 μl of acetonitrile/formic acid=99/1 (v/v). Quenched samples were stored at ambient temperature until the end of the incubation period (24 hrs*). After centrifugation, the supernatant was transferred into fresh vials and analyzed by LC-MS/MS in ESI positive mode (Waters ACQUITY UPLC I-Class System (SM-FTN) with Xevo TQD triple quadrupole mass spectrometer with control software Waters MassLynx). […] Values below the limit of quantification (0.1 μM) and outliers of triplicate results were excluded from further calculations. An exponential regression curve was fitted onto the concentration results. Half-life times were calculated from the slope of the regression curve (t1/2=ln(2)/slope).
(§2) For some samples, as indicated below, the incubation time was 6 hours. The 24 hour data was measured in triplicates whereas the 6 hour data was measured in duplicates.

[2] = Plasma stability, mouse plasma; settings: for remaining at 1 h, 10 µM / remaining at 3 h, 10 µM / remaining at 6 h, 10 µM: Balb C, Li-heparin plasma; for remaining at 1 h, 10 µM / remaining at 3 h, 10 µM / remaining at 6 h, 10 µM / half-life: mouse; for Conc. (% of T0) / Mean (compound concentration) / Tube 2 (compound concentration) / Tube 1 (compound concentration) / half-life: mouse plasma, 37° C.; for half-life: plasma
Method: as §1, §2

NbALFA = test: SPR measurements of NbALFA binding (Biacore T200, multi cycle kinetics, 1:1 binding model); settings: for Kd / ka / kd: 25° C., HBS-EP+ buffer, biotinylated NbALFA captured
Method: Affinity measurements were performed using a Biacore T200 (GE Healthcare, Biacore T200 control Software 3.2). […] A freshly docked Biotin CAPture chip was rehydrated overnight in the instrument (standby mode). […] The immobilization of the Nanobody was done for 180 s at 10 μL/min on FC2 followed by quenching of unbound streptavidin by 0.1 mM biocytin for 60 s and 30 μL/min on both flow cells. […] After each cycle, the surface was regenerated for 120 s with 10 μL/min using regeneration solution. All measurements were performed at 25° C. using HBS-EP+ buffer (Cytiva Europe, Cat. no BR100669). The control responses from FC1 were subtracted by the sample measurement in FC2 (FC2−FC1) followed by subtraction of the 0 nM blank injection. Resulting binding curves of this multi cycle kinetic experiment were fitted using the Biacore T200 Evaluation Software 3.2 and a 1:1 binding model.

[3] = human plasma, 37° C., timepoint 0 h
[4] = human plasma, 37° C., timepoint 0 h, calibration range 0.1 to 10 μM
[5] = human plasma, 37° C., timepoint 1 h
[6] = human plasma, 37° C., timepoint 3 h
[7] = human plasma, 37° C., timepoint 6 h
[8] = Flag (half-life, assay exceeded), human plasma, 37° C.
[9] = Half-life time, human plasma, 37° C., incubation 24 h (triplicates) or 6 h (duplicates)
[10] = timepoint 0 h, calibration range 0.1 to 10 μM
[11] = Flag (half-life, assay exceeded)
[12] = Half-life time, incubation 24 h (triplicates) or 6 h (duplicates)
[13] = Conc. (% of T0), human plasma, 37° C., timepoint 1 h
[14] = Conc. (% of T0), human plasma, 37° C., timepoint 3 h

Row | SMILES | Conc. (% of T0) [1, 3] | half-life [1, 8] [h] | half-life [1, 9] [h] | remaining at 1 h, 10 µM [2] [%] | remaining at 3 h, 10 µM [2] [%] | remaining at 6 h, 10 µM [2] [%] | Conc. (% of T0) ([2]; timepoint 0 h) | Mean (compound concentration) ([2]; timepoint 0 h) | Tube 2 (compound concentration) ([2]; timepoint 0 h) | Tube 1 (compound concentration) [2, 10] [x] | Mean (compound concentration) ([2]; timepoint 1 h) | Tube 1 (compound concentration) ([2]; timepoint 1 h) [x] | Tube 2 (compound concentration) ([2]; timepoint 1 h) | Mean (compound concentration) ([2]; timepoint 3 h) | Tube 1 (compound concentration) ([2]; timepoint 3 h) [x] | Tube 2 (compound concentration) ([2]; timepoint 3 h) | Mean (compound concentration) ([2]; timepoint 6 h) | Tube 1 (compound concentration) ([2]; timepoint 6 h) [x] | Tube 2 (compound concentration) ([2]; timepoint 6 h) | half-life [2, 12] [h] | further results
1 | CC(=O)N1CCC[C@H]1C(=O)N[C@@H](CO)C(=O)N[C@@H](CCCNC(=N)N)C(=O)N[C@@H](CC(C)C)C(=O)N[C@@H](CCC(=O)O)C(=O)N[C@H]1CCCCNC(=O)CC[C@@H](C(=O)N[C@@H](CCCNC(=N)N)C(=O)N[C@@H](CC(C)C)C(=O)N[C@H](C(=O)N[C@@H](CCC(=O)O)C(N)=O)[C@@H](C)O)NC(=O)[C@H](CCCNC(=N)N)NC(=O)[C@H](CC(C)C)NC(=O)[C@H](CCC(=O)O)NC1=O [SD15805, Ac-Pro-Ser-Arg-Leu-Glu-(cyclo6)Lys-Glu-Leu-Arg-(cyclo10)Glu-Arg-Leu-Thr-Glu-NH2] (Ac-PSRLEKELRERLTE-NH2; lactam 6-10) | 100.0 % of T0 | > 6 | 13.8 | 82.1 | 78.3 | 53.8 | 100.0 % of T0 | 2.697 | 2.811 | 2.583 | 2.213 | 2.223 | 2.203 | 2.112 | 2.125 | 2.099 | 1.450 | 1.429 | 1.471 | 7.29 | Mean (compound concentration) [1, 3]: 2.836; Tube 2 (compound concentration) [1, 3]: 2.777; Tube 1 (compound concentration) [1, 4]: 2.894 x; Mean (compound concentration) [1, 5]: 2.507; Tube 1 (compound concentration) [1, 5]: 2.529 x; Tube 2 (compound concentration) [1, 5]: 2.485; Mean (compound concentration) [1, 6]: 2.356; Tube 1 (compound concentration) [1, 6]: 2.408 x; Tube 2 (compound concentration) [1, 6]: 2.304; Mean (compound concentration) [1, 7]: 2.046; Tube 1 (compound concentration) [1, 7]: 2.046 x; Tube 2 (compound concentration) [1, 7]: 2.045; remaining at 1 h, 10 µM [1]: 88.4%; remaining at 3 h, 10 µM [1]: 83.1%; remaining at 6 h, 10 µM [1]: 72.1%; half-life [2, 11]: > 6 h; Kd (NbALFA): 0.103 nM; ka (NbALFA): 9.33e+06 M⁻¹ s⁻¹; kd (NbALFA): 0.000964 s⁻¹
2 | CC(=O)N1CCC[C@H]1C(=O)N[C@@H](CO)C(=O)N[C@@H](CCCNC(=N)N)C(=O)N[C@@H](CC(C)C)C(=O)N[C@H]1CCC(=O)NCCCC[C@@H](C(=O)N[C@@H](CCCNC(=N)N)C(=O)N[C@@H](CCCNC(=N)N)C(=O)N[C@@H](CC(C)C)C(=O)N[C@H](C(=O)N[C@@H](CCC(=O)O)C(N)=O)[C@@H](C)O)NC(=O)[C@H](CC(C)C)NC(=O)[C@H](CCC(=O)O)NC(=O)[C@H](CCC(=O)O)NC1=O [SD15806, Ac-Pro-Ser-Arg-Leu-(cyclo5)Glu-Glu-Glu-Leu-(cyclo9)Lys-Arg-Arg-Leu-Thr-Glu-NH2] (Ac-PSRLEEELKRRLTE-NH2; lactam 5-9) | 100.0 % of T0 | > 6 | 20.8 | 88.4 | 83.1 | 73.7 | 100.0 % of T0 | 3.073 | 3.145 | 3.000 | 2.717 | 2.773 | 2.661 | 2.553 | 2.604 | 2.501 | 2.265 | 2.258 | 2.272 | 14.9 | Mean (compound concentration) [1, 3]: 3.040; Tube 2 (compound concentration) [1, 3]: 2.965; Tube 1 (compound concentration) [1, 4]: 3.114 x; Mean (compound concentration) [1, 5]: 2.859; Tube 1 (compound concentration) [1, 5]: 2.843 x; Tube 2 (compound concentration) [1, 5]: 2.874; Mean (compound concentration) [1, 6]: 2.629; Tube 1 (compound concentration) [1, 6]: 2.772 x; Tube 2 (compound concentration) [1, 6]: 2.486; Mean (compound concentration) [1, 7]: 2.476; Tube 1 (compound concentration) [1, 7]: 2.534 x; Tube 2 (compound concentration) [1, 7]: 2.417; remaining at 1 h, 10 µM [1, 13]: 94%; remaining at 3 h, 10 µM [1, 14]: 86.5%; remaining at 6 h, 10 µM ([1]; Conc. (% of T0), human plasma, 37° C., timepoint 6 h): 81.4%; half-life [2, 11]: > 6 h; Kd (NbALFA): 1.43 nM; ka (NbALFA): 3.44e+09 M⁻¹ s⁻¹; kd (NbALFA): 4.94 s⁻¹
3 | CC(=O)N1CCC[C@H]1C(=O)N[C@@H](CO)C(=O)N[C@@H](CCCNC(=N)N)C(=O)N[C@@H](CC(C)C)C(=O)N[C@@H](CCC(=O)O)C(=O)N[C@H]1CSSC[C@H](C(=O)N[C@@H](CCCNC(=N)N)C(=O)N[C@@H](CCCNC(=N)N)C(=O)N[C@@H](CC(C)C)C(=O)N[C@H](C(=O)N[C@@H](CCC(=O)O)C(N)=O)[C@@H](C)O)NC(=O)[C@H](CC(C)C)NC(=O)[C@H](CCC(=O)O)NC1=O [SD15807, Ac-Pro-Ser-Arg-Leu-Glu-(cyclo6)Cys-Glu-Leu-(cyclo9)dCys-Arg-Arg-Leu-Thr-Glu-NH2] (Ac-PSRLECEL[dC]RRLTE-NH2; disulfide 6-9) | 100.0 % of T0 | > 6 | 6.07 | 78.7 | 60.9 | 37 | 100.0 % of T0 | 2.172 | 2.194 | 2.149 | 1.710 | 1.726 | 1.693 | 1.322 | 1.321 | 1.323 | 0.804 | 0.803 | 0.804 | 4.32 | Mean (compound concentration) [1, 3]: 2.217 and 2.958; Tube 2 (compound concentration) [1, 3]: 2.230 and 3.034; Tube 1 (compound concentration) [1, 4]: 2.203 x and 2.882 x; Mean (compound concentration) [1, 5]: 2.093 and 2.872; Tube 1 (compound concentration) [1, 5]: 2.094 x and 2.884 x; Tube 2 (compound concentration) [1, 5]: 2.092 and 2.860; Conc. (% of T0) ([1]; human plasma, 37° C., timepoint 1 h, 60 min): 97.1 % of T0; Mean (compound concentration) [1, 6]: 1.662 and 2.596; Tube 1 (compound concentration) [1, 6]: 1.583 x and 2.532 x; Tube 2 (compound concentration) [1, 6]: 1.740 and 2.660; Conc. (% of T0) ([1]; human plasma, 37° C., timepoint 3 h, 180 min): 87.8 % of T0; Conc. (% of T0) ([1]; human plasma, 37° C., timepoint 6 h, 360 min): 51.2 % of T0 and 77.7 % of T0; remaining at 1 h, 10 µM [1, 13]: 94.4%; remaining at 3 h, 10 µM [1, 14]: 75%
4 | CC(=O)N1CCC[C@H]1C(=O)N[C@@H](CO)C(=O)N[C@@H](CCCNC(=N)N)C(=O)N[C@@H](CC(C)C)C(=O)N[C@@H](CCC(=O)O)C(=O)N[C@H]1CCC(=O)NCCCC[C@H](C(=O)N[C@@H](CCCNC(=N)N)C(=O)N[C@@H](CC(C)C)C(=O)N[C@H](C(=O)N[C@@H](CCC(=O)O)C(N)=O)[C@@H](C)O)NC(=O)[C@H](CCCNC(=N)N)NC(=O)[C@H](CC(C)C)NC(=O)[C@H](CCC(=O)O)NC1=O [SD15808, Ac-Pro-Ser-Arg-Leu-Glu-(cyclo6)Glu-Glu-Leu-Arg-(cyclo10)dLys-Arg-Leu-Thr-Glu-NH2] (Ac-PSRLEEELR[dK]RLTE-NH2; lactam 6-10) | – | > 6 | 16.1 | 86.9 | 73.7 | 61.1 | 100.0 % of T0 | 3.198 | 3.173 | 3.223 | 2.780 | 2.668 | 2.892 | 2.357 | 2.398 | 2.316 | 1.955 | 2.018 | 1.892 | 8.74 | half-life [2, 11]: > 6 h; Kd (NbALFA): 0.038 nM; ka (NbALFA): 1.35e+07 M⁻¹ s⁻¹; kd (NbALFA): 0.000513 s⁻¹; binding with respect to NbALFA (NbALFA; in words): very good binding
